# pIC50: −log10 of the molar value.
# Columns and labels:
# [1] = biological target: T1, wild type AXL (wtAXL) receptor tyrosine kinase (Homo sapiens, UniProt P30530); test: NIH-3T3-AXL cellular kinase assay (pY-AXL-ELISA); format: cell-based; details: NIH-3T3-AXL (clone 22) cells, serum depleted, compounds 1 h; Table Ia
# T1 construct: WtAXL cDNA was cloned into vector pLXSN(ESK) and transfected into Phoenix E packaging cells; expressed in transfected cells; host or cells: NIH3T3 N7 (mouse fibroblasts), retrovirally infected, clone 22
# T1 sequence (P30530 26-894): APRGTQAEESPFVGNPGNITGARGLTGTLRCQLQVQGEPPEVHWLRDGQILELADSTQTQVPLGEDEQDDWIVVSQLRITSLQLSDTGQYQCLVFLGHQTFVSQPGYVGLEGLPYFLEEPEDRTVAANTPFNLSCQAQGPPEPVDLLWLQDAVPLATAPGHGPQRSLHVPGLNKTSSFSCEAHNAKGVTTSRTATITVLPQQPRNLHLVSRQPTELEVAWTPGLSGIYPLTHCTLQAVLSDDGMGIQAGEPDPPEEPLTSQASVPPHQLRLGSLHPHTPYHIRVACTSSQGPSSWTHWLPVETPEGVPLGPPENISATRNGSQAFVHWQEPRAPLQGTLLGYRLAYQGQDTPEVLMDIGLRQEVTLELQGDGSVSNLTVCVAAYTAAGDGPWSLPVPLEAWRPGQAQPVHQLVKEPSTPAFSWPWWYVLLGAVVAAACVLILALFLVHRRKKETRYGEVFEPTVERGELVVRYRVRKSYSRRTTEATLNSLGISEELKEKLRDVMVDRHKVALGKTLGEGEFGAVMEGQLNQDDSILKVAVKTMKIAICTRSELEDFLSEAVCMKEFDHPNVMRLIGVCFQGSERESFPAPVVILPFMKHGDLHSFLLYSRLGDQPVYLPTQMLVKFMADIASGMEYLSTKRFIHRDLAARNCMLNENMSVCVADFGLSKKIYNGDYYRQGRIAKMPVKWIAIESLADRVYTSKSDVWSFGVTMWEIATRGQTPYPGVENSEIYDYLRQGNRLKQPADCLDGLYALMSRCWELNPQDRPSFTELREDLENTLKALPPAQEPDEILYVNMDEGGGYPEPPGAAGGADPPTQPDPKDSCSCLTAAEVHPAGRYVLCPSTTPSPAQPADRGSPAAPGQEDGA
# In short: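 NIH3T3 cells stably expressing human wild-type AXL (retroviral, puromycin-selected clones) were treated with serial compound dilutions for 1 h and lysed. AXL tyrosine phosphorylation was measured by ELISA on the lysates: biotinylated 4G10 anti-phosphotyrosine, streptavidin-alkaline phosphatase, AttoPhos fluorescence at 430/560 nm after 90 min.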
# Hs578T = test: Wound healing migration assay; format: cell-based; details: Homo sapiens, Hs-578T; HS578T cell line; Table Ib
# In short: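 Cells seeded at 150000/24 well, grown to monolayer overnight, scratched with a pipette tip, then treated with compound at 12.5, 6.25 or 3.125 μM versus DMSO. Stopped by crystal violet fixation at 48-72 h once control wounds closed; IC50 taken as 50% wound size between t0 and t48 or t72.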
SMILES,pIC50 [1],pIC50 (Hs578T)
"COc1cc2c(Oc3ccc(NS(=O)(=O)c4c(F)cccc4F)cc3F)ccnc2cc1OCCCN1CCN(C)CC1 [Example 110, 2,6-Difluoro-N-(3-fluoro-4-{6-methoxy-7-[3-(4-methyl-piperazin-1-yl)-propoxy]-quinolin-4-yloxy}-phenyl)-benzenesulfonamide]",> 6.30,≥ 4.90
"COc1cc2c(Oc3c(Cl)cc(NS(=O)(=O)c4c(F)cccc4F)cc3Cl)ccnc2cc1OCCCN1CCC(C)CC1 [Example 209, N-(3,5-Dichloro-4-{6-methoxy-7-[3-(4-methyl-piperidin-1-yl)-propoxy]-quinolin-4-yloxy}-phenyl)-2,6-difluoro-benzenesulfonamide]",> 6.30,≥ 4.90
"COc1cc2c(Oc3ccc(NS(=O)(=O)c4c(F)cccc4F)cc3F)ccnc2cc1OCCCN1CCCCC1 [Example 11, 2,6-Difluoro-N-{3-fluoro-4-[6-methoxy-7-(3-piperidin-1-yl-propoxy)-quinolin-4-yloxy]-phenyl}-benzenesulfonamide]",> 6.30,≥ 4.90
"COc1cc2c(Oc3ccc(NS(=O)(=O)c4c(Cl)cccc4Cl)cc3Cl)ccnc2cc1OCCCN1CCN(C)CC1 [Example 119, 2,6-Dichloro-N-(3-chloro-4-{6-methoxy-7-[3-(4-methyl-piperazin-1-yl)-propoxy]-quinolin-4-yloxy}-phenyl)-benzenesulfonamide]",> 6.30,≥ 4.90
"COc1cc2c(Oc3ccc(NS(=O)(=O)c4c(Cl)cccc4Cl)cc3F)ccnc2cc1OCCCN1CCCC(C)C1 (stereo not shown) [Example 51, 2,6-Dichloro-N-(3-fluoro-4-{6-methoxy-7-[3-(3-methyl-piperidin-1-yl)-propoxy]-quinolin-4-yloxy}-phenyl)-benzenesulfonamide]",> 6.30,≥ 4.90
"COc1cc2c(Oc3ccc(NS(=O)(=O)c4ccccc4OC(F)(F)F)cc3F)ccnc2cc1OCCCN1CCCC(C)C1 (stereo not shown) [Example 45, N-(3-Fluoro-4-{6-methoxy-7-[3-(3-methyl-piperidin-1-yl)-propoxy]-quinolin-4-yloxy}-phenyl)-2-trifluoromethoxy-benzenesulfonamide]",> 6.30,≥ 4.90
"COc1cc2c(Oc3ccc(NS(=O)(=O)c4ccccc4OC(F)(F)F)cc3F)ccnc2cc1OCCCN(C)C [Example 179, N-{4-[7-(3-Dimethylamino-propoxy)-6-methoxy-quinolin-4-yloxy]-3-fluoro-phenyl}-2-trifluoromethoxy-benzenesulfonamide]",> 6.30,≥ 4.90
"COc1cc2c(Oc3ccc(NS(=O)(=O)c4c(F)cccc4F)cc3F)ccnc2cc1OCCCN(C)C [Example 178, N-{4-[7-(3-Dimethylamino-propoxy)-6-methoxy-quinolin-4-yloxy]-3-fluoro-phenyl}-2,6-difluoro-benzenesulfonamide]",> 6.30,4.30 to 4.90
"COc1cc2c(Oc3c(Cl)cc(NS(=O)(=O)c4ccccc4C(F)(F)F)cc3Cl)ccnc2cc1OCCCN1CCC(C)CC1 [Example 210, N-(3,5-Dichloro-4-{6-methoxy-7-[3-(4-methyl-piperidin-1-yl)-propoxy]-quinolin-4-yloxy}-phenyl)-2-trifluoromethyl-benzenesulfonamide]",> 6.30,≥ 4.90
"COc1cc2c(Oc3ccc(NS(=O)(=O)c4c(Cl)cccc4Cl)cc3F)ccnc2cc1OCCCN1CCCCC1 [Example 6, 2,6-Dichloro-N-{3-fluoro-4-[6-methoxy-7-(3-piperidin-1-yl-propoxy)-quinolin-4-yloxy]-phenyl}-benzenesulfonamide]",> 6.30,≥ 4.90
"COc1cc2c(Oc3ccc(NS(=O)(=O)c4c(Cl)cccc4Cl)cc3F)ccnc2cc1OCCN1CCOCC1 [Example 104, 2,6-Dichloro-N-{3-fluoro-4-[6-methoxy-7-(2-morpholin-4-yl-ethoxy)-quinolin-4-yloxy]-phenyl}-benzenesulfonamide]",> 6.30,≥ 4.90
"COc1cc2c(Oc3ccc(NS(=O)(=O)c4ccccc4OC(F)(F)F)cc3F)ccnc2cc1OCCCN1CCCCC1 [Example 78, N-{3-Fluoro-4-[6-methoxy-7-(3-piperidin-1-yl-propoxy)-quinolin-4-yloxy]-phenyl}-2-trifluoromethoxy-benzenesulfonamide]",> 6.30,≥ 4.90

# Next, values leading:
pIC50 [1],pIC50 (Hs578T),SMILES
> 6.30,≥ 4.90,"COC(=O)c1sccc1S(=O)(=O)Nc1ccc(Oc2ccnc3cc(OCCCN4CCC(C)CC4)c(OC)cc23)c(F)c1 [Example 156, 3-(3-Fluoro-4-{6-methoxy-7-[3-(4-methyl-piperidin-1-yl)-propoxy]-quinolin-4-yloxy}-phenylsulfamoyl)-thiophene-2-carboxylic acid methyl ester]"
> 6.30,≥ 4.90,"COc1cc2c(Oc3ccc(NS(=O)(=O)c4ccccc4[N+](=O)[O-])cc3F)ccnc2cc1OCCCN1CCCC(C)C1 (stereo not shown) [Example 40, N-(3-Fluoro-4-{6-methoxy-7-[3-(3-methyl-piperidin-1-yl)-propoxy]-quinolin-4-yloxy}-phenyl)-2-nitro-benzenesulfonamide]"
> 6.30,≥ 4.90,"COC(=O)c1sccc1S(=O)(=O)Nc1ccc(Oc2ccnc3cc(OCCCN4CCN(C)CC4)c(OC)cc23)c(F)c1 [Example 158, 3-(3-Fluoro-4-{6-methoxy-7-[3-(4-methyl-piperazin-1-yl)-propoxy]-quinolin-4-yloxy}-phenylsulfamoyl)-thiophene-2-carboxylic acid methyl ester]"
> 6.30,≥ 4.90,"COC(=O)c1sccc1S(=O)(=O)Nc1ccc(Oc2ccnc3cc(OCCCN4CCCCC4)c(OC)cc23)c(F)c1 [Example 155, 3-{3-Fluoro-4-[6-methoxy-7-(3-piperidin-1-yl-propoxy)-quinolin-4-yloxy]-phenylsulfamoyl}-thiophene-2-carboxylic acid methyl ester]"
> 6.30,≥ 4.90,"COc1cc2c(Oc3ccc(NS(=O)(=O)c4ccc(F)c(F)c4F)cc3F)ccnc2cc1OCCCN1CCCC(C)C1 (stereo not shown) [Example 49, 2,3,4-Trifluoro-N-(3-fluoro-4-{6-methoxy-7-[3-(3-methyl-piperidin-1-yl)-propoxy]-quinolin-4-yloxy}-phenyl)-benzenesulfonamide]"
> 6.30,≥ 4.90,"COC(=O)c1sccc1S(=O)(=O)Nc1ccc(Oc2ccnc3cc(OCCCN(C)C)c(OC)cc23)c(F)c1 [Example 184, 3-{4-[7-(3-Dimethylamino-propoxy)-6-methoxy-quinolin-4-yloxy]-3-fluoro-phenylsulfamoyl}-thiophene-2-carboxylic acid methyl ester]"
> 6.30,≥ 4.90,"COC(=O)c1sccc1S(=O)(=O)Nc1ccc(Oc2ccnc3cc(OCCCN4CCOCC4)c(OC)cc23)c(F)c1 [Example 157, 3-{3-Fluoro-4-[6-methoxy-7-(3-morpholin-4-yl-propoxy)-quinolin-4-yloxy]-phenylsulfamoyl}-thiophene-2-carboxylic acid methyl ester]"
> 6.30,≥ 4.90,"COc1cc2c(Oc3ccc(NS(=O)(=O)c4cccc(Cl)c4F)cc3F)ccnc2cc1OCCCN1CCCC(C)C1 (stereo not shown) [Example 54, 3-Chloro-2-fluoro-N-(3-fluoro-4-{6-methoxy-7-[3-(3-methyl-piperidin-1-yl)-propoxy]-quinolin-4-yloxy}-phenyl)-benzenesulfonamide]"

# From patent US9169241B2, “Quinolinyloxyphenylsulfonamides” (Max-Planck-Gesellschaft Zur Forderung der Wissenschaften …, priority 2009, dated 2015)
